Data on six compounds can be found in patent US20220357313A1, “DRUG FINGERPRINTING” (Q-STATE BIOSCIENCES, INC., priority 2021, published 2022).

Structures can show the parent of a compound that is named as a salt.

The test system of assay [1] is neurons. As to the kind of experiment: Drug fingerprint activity detector in the 400 compound screen. In kind it is cell-based. Particulars: Retigabine positive CTL wells. The source says:
To address this challenge, the invention provides a neuronal fingerprinting-based activity detector. In embodiments, the method calculates the fingerprints for each sample, then determines which fingerprints lie inside the “cloud of inertness” defined by the high-n replication of control wells. Samples that give a very low probability of being inert are then labeled as active. This technique is enabled by two assets: 1) a fitted fingerprinting algorithm, such as is described above, with which to find fingerprints and 2) control samples to populate the “cloud of inertness” at the center of the fingerprint space. The determination of the probability of inertness can be made using several computationally inexpensive techniques, including multivariate gaussian distributions and nonparametric kernel density estimation.
FIG. 59 illustrates a drug fingerprint as an activity detector, which could be used for inertness identifier as well. […] Bioactivity of compounds across varying concentrations can be automatically detected in the trained drug space. […] Throughout the 400 compound screen, activity was detected for 99.8% of the Retigabine positive CTL wells and 25.1% of experimental wells (403 compounds across 10 concentrations). For compounds where activity was detected, activity was detected for 49.5% of the wells with the highest third of doses and for 61% of the highest doses. […]

The subject of assay [2] is iPSC-derived excitatory cortical neurons (NGN2) with loss of function knockout (KO). The experiment in a line: Optopatch action potential features in knockout disease-model iPSC-derived cortical neurons. Format: cell-based, human. The settings on record: for cell behavior projected onto the phenotype/side effect space: KO cells, 8 concentrations from 0.28 to 600 μM, two replicates; for reversal of functional phenotype of disease-model cells (radar plots of action potential features): KO disease-model cells, features normalized to control cells. On the procedure:
In this example, iPSC-derived excitatory cortical neurons (NGN2) were grown for 30 days in a culture. The neurons expressed Optopatch proteins as described in Example 1. Two sets of neurons were grown. The first was a wildtype control line. […] The cells were stimulated using blue light as described in Example 1 and their action potentials recorded as voltage traces. Recordings were made of the control cells and disease-model cells when stimulated in the absence of any test compound. Recordings were also made of the disease-model cells when stimulated in the presence of the promiscuous potassium channel blocker 4-AP and the promiscuous sodium channel blocker lamotrigine.
FIG. 19 provides radar plots showing action potential features extracted from the recorded action potential features when stimulated by blue light. The values for the features are normalized to the control cell recordings. […] The differences in the recorded traces, select features of which are provided on the radar plots, show the functional phenotype of the disease-model in red.
FIG. 20 is a diagram illustrating phenotype reversal and “side effects” described by mapping extracted action potential features on the ˜300-dimensional space of recorded parameters, only two of which are shown. Extracted features for the control cell (WT) wells (green) are clustered as are those for the KO cells (red). The vector between these populations represents the phenotype (red). Drug effects (blue) are deconstructed into components along (phenotype reversal) and orthogonal to (side effects) the phenotype vector. An ideal drug would undo the effects of the mutation and move the well from the KO cluster to the control cell cluster.
FIG. 21 is a plot showing many wells projected onto the phenotype/side effect space. WT and KO wells are well separated along the phenotype direction. Application of the two compounds (8 concentrations from 0.28 to 600 μM) from FIG. 25 have increasing effects on KO cell behavior as the concentration increases. […] The connected drug points are in order of increasing concentration, and the two lines are experimental replicates on two consecutive weeks of experiment.

Assay [3] relates to neurons. The experiment in a line: Nearest neighbor matching of 8-dimensional drug fingerprints across the 400 compound library. Particulars: nearest neighbor query across the 400 compound library. In kind it is cell-based. The source says:
(§1) An autoencoder reduces 518 features extracted from Optopatch measurements through an 8-dimensional bottleneck layer (the “embedding”) before attempting to expand back out and reconstruct the initial inputs. The embeddings are information-dense and (because of the preceding depth) reflect high-order representations. The autoencoder may implement a swish activation function between any layers (e.g., between the 518 and 50 dimensional layers, or between the 50 and 25 dimensional layers. Activation functions extend neural networks behavior to non-linear data. Thus the autoencoder is useful for deriving drug fingerprints with representation learning.
Over 400 compounds have been assessed in 10-point concentration response curves (CRCs) in neuronal excitability assays.
In general, the highest concentrations of the compounds are associated with the largest deviation from control. The action potential traces of FIG. 48 are shown to the autoencoder of FIG. 45, which derives for each compound an 8-dimensional fingerprint such as the two (two replicates of one compound) shown in FIG. 46. […]
GSK 3787 is a potent and selective peroxisome proliferator-activated receptor δ (PPARδ) antagonist. […] Software may read hundreds (e.g., 512) of features of action potentials fluorescently shown in the movies. […]

Assay [4] relates to hiPSC-derived motor neurons. As to the kind of experiment: Optopatch excitability recording in hiPSC-derived motor neurons, before and after compound addition. The settings on record: 1 μM ML213; same field of view recorded before and after addition; blue light stimulus. Format: cell-based, human. The source says: Human induced pluripotent stem cells (hiPSC) were differentiated into hiPSC-derived motor neurons. The cells expressed an optogenetic proteins from the Optopatch toolkit (optical stimulation plus optical voltage reporting, e.g., CheRiff & QuasAr), which allows simultaneous optical stimulation and recording of neuronal action potentials.
The channelrhodopsin CheRiff enables action potential stimulation with blue light and the voltage-sensitive fluorescent protein QuasAr enables high-speed electrical recordings with red light. A microscope, as disclosed herein, obtained simultaneous voltage recordings from >100 individual neurons over a large (0.5×4 mm) field of view (FOV) with 1 ms temporal resolution and high signal-to-noise ratio (SNR). A digital micromirror device (DMD) in the microscope projected a fully reconfigurable optical pattern to sequentially stimulate individual cells while recording from many post-synaptic partners. […]
In every voltage trace the spikes were detected and the key spike shape and timing parameters were computed. […]
Pixels in the recording that captured fluorescence from the reporters of membrane potential in each neuron co-varied in time following that cell's unique firing pattern. […] Each FOV was recorded twice, before and after addition of potassium channel opener ML213. […]

For assay [5], the system named is E18 rat hippocampal neurons. As to the kind of experiment: Optopatch spiking behavior of cultured rat hippocampal neurons with compounds. In kind it is cell-based. The settings on record: for drug-induced changes in neuronal spiking behavior (radar plots): features normalized to control vehicle. On the procedure:
E18 rat hippocampal neurons were cultured for 14 days and caused to express Optopatch proteins as described in Example 1. The cells were stimulated in the presence of XE-991 (a Kv7.x blocker), ML-213 (a Kv7.x opener), α-Dendrotoxin (a Kv1.x blocker), OXO-M (a muscarinic agonist), 4AP (a promiscuous Kv blocker), Isradipine (a Cav1.x blocker), or a control vehicle.
FIG. 22 provides radar plots showing the drug-induced changes in neuronal spiking behavior along many dimensions, which are merely a subset of the action potential features extracted from recordings of the stimulated cells in the presence of one of the listed compounds. The action potential feature values were normalized to those for the cells simulated in the presence of the control vehicle. As shown in the radar plots, each compound provided a discernable and unique effect to the action potential features of the cell.
E18 rat hippocampal neurons were cultured for 14 days and caused to express Optopatch proteins as described in Example 1. The cells were placed in wells of a 96-well plate. ML-213 at 1 μM was added to alternating columns of the plate and a control vehicle added to the remaining columns. The cells in all wells were stimulated and their action potentials recorded using a microscope as described in Example 1.

Assay [6] has as its system KCNQ2 R201C gain-of-function mutant line. The experiment in a line: Drug fingerprint phenotype reversal in KCNQ2 R201C line. In kind it is cell-based. Particulars: several concentrations.
Text: as §1
For example, the potassium voltage-gated channel subfamily Q member 2 (KCNQ2) protein and gene are implicated in KCNQ2 encephalopathy, which typically presents with seizures in the first week of life. It is understood that mutation of […] at position 201 in KCNQ2 (R201C) is a gain-of-function mutation that may give rise to KCNQ2 encephalopathy. Using methods of the invention, neurons with and without the R201C mutation may be measured with optopatch and a system such as an autoencoder may create a phenotype. Each phenotype may be plotted in the 8-dimensional space by the autoencoder, which may also plot a drug fingerprint. […]

Turning to `CCOC(=O)Nc1ccc(NCc2ccc(F)cc2)cc1N` [Retigabine], in the assay with neurons [1], the “wells in which activity was detected” value stood at 99.8%.

With `Nc1ccncc1` [4-AP], in assay [2], the “cell behavior projected onto the phenotype/side effect space” value was “moves cell behavior toward and beyond WT behavior”; the “reversal of functional phenotype of disease-model cells (radar plots of action potential features)” value was “substantially reversed the phenotype”.

For the compound `Cc1cc(C)c(NC(=O)C2CC3CCC2C3)c(C)c1` (centres unmarked) [ML213], the “drug fingerprint similarity to query compound ICA-27243” value with neurons [3] is listed as “highly similar drug fingerprints”. For the same compound, in assay [4], the neuronal excitability result is “clear reduction in neuronal excitability”. The “average firing rate during the blue light stimulus ramp” value in assay [5] (ML-213 at 1 μM versus vehicle, 96-well plate) is on record as “dramatically reduces firing rate”. The “drug-induced changes in neuronal spiking behavior (radar plots)” value in assay [5] is reported as “drove cellular response, as expected”.

Turning to `O=C1c2ccccc2C(Cc2ccncc2)(Cc2ccncc2)c2ccccc21` [XE-991], the “drug-induced changes in neuronal spiking behavior (radar plots)” value in assay [5] is “drove cellular response, as expected”.

In the case of `Nc1nnc(-c2cccc(Cl)c2Cl)c(N)n1` [lamotrigine], in assay [2], the “cell behavior projected onto the phenotype/side effect space” value is “moves behavior away from both WT and KO”; the “reversal of functional phenotype of disease-model cells (radar plots of action potential features)” value is on record as “perturbed behavior but did not reverse the phenotype”.

With `O=C1N(c2ccccc2)c2ccccc2C1(Cc1ccncc1)Cc1ccncc1` [Linopirdine hydrochloride], the “reversal of KCNQ2 R201C gain-of-function phenotype in 8-dimensional drug fingerprint space” value in assay [6] is recorded as “reverses the disease phenotype”.
